Laboratory results as given in patent US20250228855A1, “PYRAZINAMIDE COMPOUNDS” (The General Hospital Corporation, priority 2022, published 2025).
Structures can show the parent of a compound that is named as a salt. Where two headings read alike, the source gives them in different places.

Legend:
P. falciparum Dd2-2D4 = assay: P. falciparum asexual blood stage growth assay, wild-type Dd2-2D4; conditions: Plasmodium falciparum
Procedure: (§3) Asexual blood stage (ABS) P. falciparum parasites were treated with test compounds at varying concentrations for 72 h, followed by quantification of parasite growth by SYBR Green staining.
(§4) P. falciparum Asexual Blood Stage Growth Assay: This assay was performed as previously described.

[1] = tested on: luciferase-expressing P. berghei ANKA sporozoites; assay: P. berghei liver stage assay in HuH7 cells; format: cell-based; conditions: Plasmodium berghei, Huh-7; HuH7 hepatocytes, ~44 hpi, luminescence
Procedure: (§1) Halofuginone and derivatives are active against liver stage Plasmodium parasites. NCP26 and MAT436 were evaluated in a tissue culture-based P. berghei liver stage model. Specifically, various test compounds were added in dose-response to human hepatocytes (HuH7) followed by infection with luciferase-expressing P. berghei ANKA sporozoites, which enabled quantification of parasite load by luminescence. In parallel, host cell viability was also assessed to provide an estimate of cellular selectivity.
(§2) P. berghei Liver Stage and HuH7 Host Hepatocyte Growth Assay: HuH7 cells (Sigma) were cultured in DMEM+L-Glutamine (Gibco) supplemented with 10% (v/v) heat-inactivated FBS (Sigma) and 1% (v/v) antibiotic/antimycotic (Sigma). Hepatocyte cultures were maintained in a standard tissue culture incubator at 37° C. Anopheles mosquitoes infected with luciferase-expressing P. berghei ANKA sporozoites were obtained from the Sporocore at the University of Georgia. […] At ˜44 hpi, HuH7 cell viability and P. berghei parasite load was assessed using CellTiter-Fluor (Promega) and Bright-Glo (Promega), respectively, using an Envision plate reader. Relative fluorescence and luminescence signal intensities were normalized to the negative control, 1% DMSO. EC50 values were determined using GraphPad Prism through fitting data to a dose response curve. […]

[2] = Storage stability of MAT436·HBr (LC-MS); format: physicochemical
PfcProRS = PfcProRS (Plasmodium falciparum, UniProt Q8I5R7); assay: TR-FRET ligand displacement assay with tracer MAT379, PfcProRS; format: binding
PfcProRS, sequence (Q8I5R7 whole entry): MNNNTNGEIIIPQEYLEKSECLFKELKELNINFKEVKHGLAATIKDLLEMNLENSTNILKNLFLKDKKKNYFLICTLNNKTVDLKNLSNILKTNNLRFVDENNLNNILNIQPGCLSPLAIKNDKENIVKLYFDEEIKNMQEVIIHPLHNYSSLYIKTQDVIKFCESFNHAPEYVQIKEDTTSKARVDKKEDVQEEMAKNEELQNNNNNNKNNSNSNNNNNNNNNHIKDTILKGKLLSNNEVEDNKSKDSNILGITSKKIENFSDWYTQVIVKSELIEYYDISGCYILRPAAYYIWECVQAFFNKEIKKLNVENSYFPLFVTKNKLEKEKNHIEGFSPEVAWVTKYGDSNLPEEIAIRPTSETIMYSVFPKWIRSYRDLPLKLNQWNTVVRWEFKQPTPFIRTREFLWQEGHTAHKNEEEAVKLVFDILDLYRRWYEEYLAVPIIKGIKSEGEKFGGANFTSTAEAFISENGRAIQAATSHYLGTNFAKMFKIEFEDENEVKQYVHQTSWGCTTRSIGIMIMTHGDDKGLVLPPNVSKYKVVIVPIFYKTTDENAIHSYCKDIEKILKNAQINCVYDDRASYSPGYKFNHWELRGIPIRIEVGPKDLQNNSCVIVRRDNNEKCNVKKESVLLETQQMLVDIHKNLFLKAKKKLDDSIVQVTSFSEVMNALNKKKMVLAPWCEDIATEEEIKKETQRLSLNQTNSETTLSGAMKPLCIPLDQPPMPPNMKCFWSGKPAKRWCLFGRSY

[3] = tested on: halofuginone-induced (HFG-induced) P. falciparum; assay: P. falciparum asexual blood stage growth assay, halofuginone-induced parasites; conditions: Plasmodium falciparum
Procedure: as §3, §4

HsProRS = biological target: T1, HsProRS (Homo sapiens, UniProt P07814); assay: TR-FRET ligand displacement assay with tracer MAT379, HsProRS; format: binding
T1 sequence (P07814 1007-1512 limits assumed): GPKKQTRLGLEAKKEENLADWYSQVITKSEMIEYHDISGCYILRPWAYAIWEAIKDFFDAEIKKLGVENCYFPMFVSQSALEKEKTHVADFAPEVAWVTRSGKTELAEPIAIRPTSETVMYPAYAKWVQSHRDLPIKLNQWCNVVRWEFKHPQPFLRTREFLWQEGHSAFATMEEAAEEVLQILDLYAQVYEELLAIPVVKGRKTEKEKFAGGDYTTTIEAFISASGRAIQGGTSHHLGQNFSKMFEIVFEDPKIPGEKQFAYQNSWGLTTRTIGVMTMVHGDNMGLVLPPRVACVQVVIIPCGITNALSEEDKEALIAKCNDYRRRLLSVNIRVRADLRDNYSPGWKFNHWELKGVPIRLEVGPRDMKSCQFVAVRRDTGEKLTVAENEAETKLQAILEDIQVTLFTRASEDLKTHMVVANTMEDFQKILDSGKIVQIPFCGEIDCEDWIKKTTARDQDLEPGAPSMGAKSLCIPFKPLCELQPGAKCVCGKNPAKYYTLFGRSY

HuH7 cells = assay: HuH7 host hepatocyte viability assay; format: cell-based; conditions: Homo sapiens, Huh-7; host cell viability
Procedure: as §1, §2

[4] = DD2, 72 h, read-out: Dd2 (EC50 [nM]) wt
[5] = DD2, read-out: EC50 against Dd2-2D4 wildtype parasites
[6] = PfcProRS (KD [nM]) +proline, 100 μM Pro
[7] = DD2, 72 h, read-out: Dd2 (EC50 [nM]) Halofuginone-induced
[8] = no proline, no ATP, read-out: HsProRS (KD [nM]) −
[9] = read-out: HsProRS (KD [nM]) +proline, 100 μM Pro
[10] = no proline, no ATP, read-out: PfcProRS (KD [nM]) −
[11] = absence of proline, read-out: KD for HsProRS
[12] = absence of proline, read-out: KD for PfcProRS
[13] = read-out: HsProRS (KD [nM]) +ATP, +ATP
[14] = PfcProRS (KD [nM]) +ATP, 500 μM ATP
[15] = read-out: EC50 in halofuginone-induced parasites
[16] = KD for HsProRS in presence of 100 μM proline, 100 μM proline

## O=C(C[C@H]1NCCC[C@@H]1OC(=O)NS(=O)(=O)N1CCN(C(=O)Nc2nccnc2C(=O)NC2Cc3ccccc3C2)CC1)Cn1cnc2cc(Br)c(Cl)cc2c1=O (relative stereo) [MAT436 (34), trans-2-(3-(7-bromo-6-chloro-4-oxoquinazolin-3(4H)-yl)-2-oxopropyl)piperidin-3-yl ((4-((3-((2,3-dihydro-1H-inden-2-yl)carbamoyl)pyrazin-2-yl)carbamoyl)piperazin-1-yl)sulfonyl)carbamate hydrobromide]
P. falciparum Dd2-2D4; [4]
  EC50: 6.76 nM
P. falciparum Dd2-2D4; [5]
  EC50: 6.8 nM
[1]
  EC50: 186 nM
[2]; 10 mM stock solution in DMSO, 8 days at room temperature, LC-MS
  hydrolyzed at carbamate carbonyl: ~36%
[2]; neat, 4° C.
  stability of neat compound: stable indefinitely
PfcProRS; [6]
  Kd: 0.722 nM
PfcProRS; absence of ATP
  fold affinity for PfcProRS compared to halofuginone in the absence of ATP: > 10^4 fold
PfcProRS; absence of ATP, read-out: KD for PfcProRS
  Kd: 0.375 nM
[3]; [7]
  EC50: 251 nM

## CC(C)(C)OC(=O)NCCCCCC(=O)NCC1CCN(C(=O)Nc2nccnc2C(=O)NC2Cc3ccccc3C2)CC1 [Compound 43, tert-butyl (6-(((1-((3-((2,3-dihydro-1H-inden-2-yl)carbamoyl)pyrazin-2-yl)carbamoyl)piperidin-4-yl)methyl)amino)-6-oxohexyl)carbamate]
P. falciparum Dd2-2D4; [4]
  EC50: 3330 nM
HsProRS; [8]
  Kd: 611 nM
HsProRS; [9]
  Kd: 2280 nM
PfcProRS; [6]
  Kd: 320 nM
PfcProRS; [10]
  Kd: 375 nM
[3]; [7]
  EC50: 5090 nM

## O=C(CCCCCNC(=S)NC1CCCCC1)NCC1CCN(C(=O)Nc2nccnc2C(=O)NC2Cc3ccccc3C2)CC1 [MAT518]
P. falciparum Dd2-2D4; [4]
  EC50: 1820 nM
HsProRS
  Kd: > 5090 nM
HsProRS; [11]
  Kd: 2760 nM
PfcProRS
  selectivity for PfcProRS compared to HsProRS: ~7 fold
PfcProRS; [6]
  Kd: 288 nM
PfcProRS; [12]
  Kd: 372 nM
[3]; [7]
  EC50: 1500 nM

## O=C(NS(=O)(=O)NCC1CCN(C(=O)Nc2nccnc2C(=O)NC2Cc3ccccc3C2)CC1)OCCn1cnc2ccccc2c1=O [MAT514, 2-(4-oxoquinazolin-3(4H)-yl)ethyl (N-((1-((3-((2,3-dihydro-1H-inden-2-yl)carbamoyl)pyrazin-2-yl)carbamoyl)piperidin-4-yl)methyl)sulfamoyl)carbamate]
P. falciparum Dd2-2D4; [4]
  EC50: 4560 nM
P. falciparum Dd2-2D4; DD2, read-out: IC50 for Dd2-2D4
  IC50: 4.56 µM
HsProRS
  Kd: 372 nM
HsProRS; [11]
  Kd: 277 nM
PfcProRS; [6]
  Kd: 32.6 nM
PfcProRS; [12]
  Kd: 35.2 nM
[3]; [7]
  EC50: 7040 nM

## NCCCCCC(=O)NCC1CCN(C(=O)Nc2nccnc2C(=O)NC2Cc3ccccc3C2)CC1 [Compound 44, 3-(4-((6-aminohexanamido)methyl)piperidine-1-carboxamido)-N-(2,3-dihydro-1H-inden-2-yl)pyrazine-2-carboxamide dihydrochloride]
P. falciparum Dd2-2D4; [4]
  EC50: > 10000 nM
HsProRS; [9]
  Kd: 330 nM
HsProRS; read-out: HsProRS (KD [nM]) −
  Kd: 1570 nM
PfcProRS; [6]
  Kd: 270 nM
PfcProRS; [10]
  Kd: 321 nM
[3]; [7]
  EC50: 8910 nM

## O=C(NC1Cc2ccccc2C1)c1nccnc1NC(=O)C1CCCCC1 [Compound 2, 3-(cyclohexanecarboxamido)-N-(2,3-dihydro-1H-inden-2-yl)pyrazine-2-carboxamide, reference compound]
P. falciparum Dd2-2D4; [4]
  EC50: 595 nM
P. falciparum Dd2-2D4; [5]
  EC50: 595 nM
HsProRS; [8]
  Kd: 371 nM
HsProRS; [13]
  Kd: 954 nM
HsProRS; [9]
  Kd: 2.16 nM
PfcProRS; [14]
  Kd: 291 nM
PfcProRS; [6]
  Kd: 7.17 nM
PfcProRS; [10]
  Kd: 437 nM
[3]; [7]
  EC50: 1250 nM
[3]; [15]
  EC50: 1250 nM

## CC(C)(C)OC(=O)N[C@H]1CC[C@@H](C(=O)Nc2nccnc2C(=O)NC2Cc3ccccc3C2)CC1 [Compound 6, tert-butyl ((1s,4s)-4-((3-((2,3-dihydro-1H-inden-2-yl)carbamoyl)pyrazin-2-yl)carbamoyl)cyclohexyl)carbamate]
P. falciparum Dd2-2D4; [4]
  EC50: 508 nM
HsProRS; [8]
  Kd: 56.8 nM
HsProRS; [9]
  Kd: 82.7 nM
PfcProRS; [6]
  Kd: 26.3 nM
PfcProRS; [10]
  Kd: 31.5 nM
[3]; [7]
  EC50: 7930 nM

## O=C(NS(=O)(=O)N1CCN(C(=O)Nc2nccnc2C(=O)NC2Cc3ccccc3C2)CC1)OC[C@@H]1CCCN1 [MAT457, (S)-pyrrolidin-2-ylmethyl ((4-((3-((2,3-dihydro-1H-inden-2-yl)carbamoyl)pyrazin-2-yl)carbamoyl)piperazin-1-yl)sulfonyl)carbamate hydrochloride]
P. falciparum Dd2-2D4; [4]
  EC50: 968 nM
P. falciparum Dd2-2D4; [5]
  EC50: 968 nM
HsProRS; KD for HsProRS
  Kd: 9.71 nM
HsProRS; [16]
  Kd: 16.3 nM
PfcProRS; [6]
  Kd: 118 nM
PfcProRS; [12]
  Kd: 152 nM
[3]; [7]
  EC50: 6570 nM
[3]; [15]
  EC50: > 10000 nM

## O=C(NC1Cc2ccccc2C1)c1nccnc1NC(=O)N1CCCCC1 [NCP26 (3), N-(2,3-dihydro-1H-inden-2-yl)-3-(piperidine-1-carboxamido)pyrazine-2-carboxamide]
HuH7 cells
  EC50: > 2500 nM
P. falciparum Dd2-2D4; [4]
  EC50: 67.4 nM
P. falciparum Dd2-2D4; [5]
  EC50: 67.4 nM
[1]
  EC50: 249 nM
HsProRS; [8]
  Kd: 271 nM
HsProRS; [13]
  Kd: 678 nM
HsProRS; [9]
  Kd: 0.351 nM
PfcProRS; [14]
  Kd: 103 nM
PfcProRS; [6]
  Kd: 2.52 nM
PfcProRS; [10]
  Kd: 130 nM
[3]; [7]
  EC50: 120 nM
[3]; [15]
  EC50: 120 nM

## O=C(CCCCCNC(=S)Nc1ccccc1)NCC1CCN(C(=O)Nc2nccnc2C(=O)NC2Cc3ccccc3C2)CC1 [MAT517]
P. falciparum Dd2-2D4; [4]
  EC50: 2680 nM
HsProRS; [8]
  Kd: 865 nM
HsProRS; [9]
  Kd: 1680 nM
PfcProRS; [10]
  Kd: 95.6 nM
PfcProRS; read-out: PfcProRS (KD [nM]) +proline, 100 μM Pro
  Kd: 80.2 nM
[3]; [7]
  EC50: 6840 nM

## O=C(NS(=O)(=O)N1CCN(C(=O)Nc2nccnc2C(=O)NC2Cc3ccccc3C2)CC1)OC[C@H]1CCCN1 [MAT459, (R)-pyrrolidin-2-ylmethyl ((4-((3-((2,3-dihydro-1H-inden-2-yl)carbamoyl)pyrazin-2-yl)carbamoyl)piperazin-1-yl)sulfonyl)carbamate]
P. falciparum Dd2-2D4; [4]
  EC50: 4620 nM
P. falciparum Dd2-2D4; [5]
  EC50: 4620 nM
HsProRS; [16]
  Kd: 245 nM
HsProRS; [11]
  Kd: 105 nM
PfcProRS; [6]
  Kd: 552 nM
PfcProRS; [12]
  Kd: 736 nM
[3]; [7]
  EC50: 7080 nM
[3]; [15]
  EC50: > 10000 nM
